Measurements as given in US20040176349A1, “Antibacterial composition” (priority 2001, published 2004).

Key:
enterococci = test: Checkerboard study, synergy summary of Example 2; format: cell-based, Enterococcus; conditions: in words
Excerpt: (§1) The aim of the study was to detect any synergy between PFOB and the other antibiotics. For the purposes of the study, synergy was defined in accordance with the FIC (fractional inhibitory concentration) index, as disclosed by Lorian (1991, In “Antibiotics in Laboratory Medicine” 3rd edition, Eds. Williams & Wilkins; esp. p 434-443). In essence, if the combination of test compounds gives at least a 4-fold reduction in the FIC value for each compound, then a synergy may be considered to exist (i.e. FIC of the combination <0.5=synergy; FIC 0.5-2.0=“indifference”; and FIC >2=antagonism).

VRE 300 1590 = test: MIC, microbroth dilution (NCCLS), Table 1; format: cell-based, Enterococcus; conditions: Enterococcus, VRE
Experimental: (§2) The minimum inhibitory concentration (MIC) of the compounds was determined using the microbroth dilution technique in accordance with NCCLS guidelines, employing Mueller-Hinton broth (National Committee for Clinical Laboratory Standards, NCCLS, 1995 “Methods for dilution antimicrobial susceptibility tests for bacteria that grow aerobically”—approved standard M7-A5).
(§3) The compounds were tested in isolation, at different concentrations.

VRE 300 2043 = test: MIC, microbroth dilution (NCCLS), Table 1; format: cell-based, Enterococcus; conditions: Enterococcus, VRE
Experimental: as §2, §3

VRE 1662 = test: MIC, microbroth dilution (NCCLS), Table 1; format: cell-based, Enterococcus; conditions: Enterococcus, VRE
Experimental: as §2, §3

VRE 300 1562 = test: MIC, microbroth dilution (NCCLS), Table 1; format: cell-based, Enterococcus; conditions: Enterococcus, VRE
Experimental: as §2, §3

E.faecalis 78097 (van B) = test: Checkerboard microdilution MIC with PFOB, Table 2; format: cell-based
Excerpt: as §1
(§4) In Table 2, results in the checkerboard indicating synergy are hatched, and specific optimum synergistic combinations are boxed.

E. faecalis ATCC 29212 = test: Checkerboard microdilution MIC with PFOB, Table 2; format: cell-based
Excerpt: as §1, §4

E. faecalis 5659 (vanA) = test: Checkerboard microdilution MIC with PFOB, Table 2; format: cell-based
Excerpt: as §1, §4

E. hirae ATCC 10541 = test: MIC, microbroth dilution (NCCLS), Table 1; format: cell-based; conditions: Enterococcus hirae, ATCC10541
Experimental: as §2, §3

E. faecalis Phillips = test: MIC, microbroth dilution (NCCLS), Table 1; format: cell-based; conditions: Enterococcus faecalis
Experimental: as §2, §3

E. faecalis 24592 = test: MIC, microbroth dilution (NCCLS), Table 1; format: cell-based; conditions: Enterococcus faecalis, 24592
Experimental: as §2, §3

E. faecalis NCTC 5957 = test: MIC, microbroth dilution (NCCLS), Table 1; format: cell-based; conditions: Enterococcus faecalis, NCTC5957
Experimental: as §2, §3

E. faecium NCTC 7171 = test: MIC, microbroth dilution (NCCLS), Table 1; format: cell-based; conditions: Enterococcus faecium, NCTC7171
Experimental: as §2, §3

E. faecalis SFZ = test: MIC, microbroth dilution (NCCLS), Table 1; format: cell-based; conditions: Enterococcus faecalis
Experimental: as §2, §3

Enterococcus strains = test: MIC against Enterococcus strains, summary of Example 1; format: cell-based; conditions: in words
Experimental: as §2, §3

E. faecalis ATCC 10541 = test: Checkerboard microdilution MIC with PFOB, Table 2; format: cell-based
Excerpt: The aim of the study was to detect any synergy between PFOB and the other antibiotics. For the purposes of the study, synergy was defined in accordance with the FIC (fractional inhibitory concentration) index, as disclosed by Lorian (1991, In “Antibiotics in Laboratory Medicine” 3rd edition, Eds. Williams & Wilkins; esp. p 434-443).

[1] = Enterococcus faecalis, read-out: MIC (alone) of Partner

For `O=C(O)[C@H]1/C(=C/CO)O[C@@H]2CC(=O)N21` [CA, clavulanic acid], the “synergy with PFOB” value (enterococci) was “No synergy”, the MIC (VRE 300 1590) was greater than 128 µg/mL and the MIC (VRE 300 2043) was greater than 128 µg/mL. The MIC (VRE 1662) was greater than 128 µg/mL, the MIC (VRE 300 1562) was greater than 128 µg/mL and the “MIC of partner antibiotic in the presence of PFOB at 0.5 mg/L” value (shortened to “MIC of partner antibiotic … at 0.5 mg/L”) (E.faecalis 78097 (van B); E.faecalis 78097 (van B), PFOB 0.5 mg/L) was greater than 64 µg/mL. For the same molecule, the “MIC of partner antibiotic in the presence of PFOB at 1 mg/L” value (from here on “MIC of partner antibiotic … at 1 mg/L”) (E.faecalis 78097 (van B); E.faecalis 78097 (van B), PFOB 1 mg/L) was greater than 64 µg/mL, the “MIC of partner antibiotic in the presence of PFOB at 2 mg/L” value (shortened to “MIC of partner antibiotic … at 2 mg/L”) (E.faecalis 78097 (van B); E.faecalis 78097 (van B), PFOB 2 mg/L) was greater than 64 µg/mL and the “MIC of partner antibiotic in the presence of PFOB at 4 mg/L” value (“MIC of partner antibiotic … at 4 mg/L” below) (E.faecalis 78097 (van B); E.faecalis 78097 (van B), PFOB 4 mg/L) was greater than 64 µg/mL. The “MIC of partner antibiotic in the presence of PFOB at 8 mg/L” value (from here on “MIC of partner antibiotic … at 8 mg/L”) (E.faecalis 78097 (van B); E.faecalis 78097 (van B), PFOB 8 mg/L) was greater than 64 µg/mL, the “MIC of partner antibiotic in the presence of PFOB at 16 mg/L” value (shortened to “MIC of partner antibiotic … at 16 mg/L”) (E.faecalis 78097 (van B); E.faecalis 78097 (van B), PFOB 16 mg/L) was greater than 64 µg/mL and the “MIC of partner antibiotic in the presence of PFOB at 32 mg/L” value (“MIC of partner antibiotic … at 32 mg/L” for short) (E.faecalis 78097 (van B); E.faecalis 78097 (van B), PFOB 32 mg/L) was greater than 64 µg/mL. For the same molecule, the MIC (E.faecalis 78097 (van B); [1]) was greater than 64 µg/mL, the “MIC of partner antibiotic … at 0.5 mg/L” value (E. faecalis ATCC 29212; E. faecalis ATCC 29212, PFOB 0.5 mg/L) was greater than 64 µg/mL and the “MIC of partner antibiotic … at 1 mg/L” value (E. faecalis ATCC 29212; E. faecalis ATCC 29212, PFOB 1 mg/L) was greater than 64 µg/mL. For the same molecule, the “MIC of partner antibiotic … at 2 mg/L” value (E. faecalis ATCC 29212; E. faecalis ATCC 29212, PFOB 2 mg/L) was greater than 64 µg/mL, the “MIC of partner antibiotic … at 4 mg/L” value (E. faecalis ATCC 29212; E. faecalis ATCC 29212, PFOB 4 mg/L) was greater than 64 µg/mL and the “MIC of partner antibiotic … at 8 mg/L” value (E. faecalis ATCC 29212; E. faecalis ATCC 29212, PFOB 8 mg/L) was greater than 64 µg/mL. The “MIC of partner antibiotic … at 16 mg/L” value (E. faecalis ATCC 29212; E. faecalis ATCC 29212, PFOB 16 mg/L) was greater than 64 µg/mL, the “MIC of partner antibiotic … at 32 mg/L” value (E. faecalis ATCC 29212; E. faecalis ATCC 29212, PFOB 32 mg/L) was greater than 64 µg/mL and the MIC (E. faecalis ATCC 29212; Enterococcus faecalis, ATCC29212, read-out: MIC (alone) of Partner) was greater than 64 µg/mL. For the same molecule, the “MIC of partner antibiotic … at 0.5 mg/L” value (E. faecalis 5659 (vanA); E. faecalis 5659 (vanA), PFOB 0.5 mg/L) was greater than 64 µg/mL, the “MIC of partner antibiotic … at 1 mg/L” value (E. faecalis 5659 (vanA); E. faecalis 5659 (vanA), PFOB 1 mg/L) was greater than 64 µg/mL and the “MIC of partner antibiotic … at 2 mg/L” value (E. faecalis 5659 (vanA); E. faecalis 5659 (vanA), PFOB 2 mg/L) was greater than 64 µg/mL. The “MIC of partner antibiotic … at 4 mg/L” value (E. faecalis 5659 (vanA); E. faecalis 5659 (vanA), PFOB 4 mg/L) was greater than 64 µg/mL, the “MIC of partner antibiotic … at 8 mg/L” value (E. faecalis 5659 (vanA); E. faecalis 5659 (vanA), PFOB 8 mg/L) was greater than 64 µg/mL and the “MIC of partner antibiotic … at 16 mg/L” value (E. faecalis 5659 (vanA); E. faecalis 5659 (vanA), PFOB 16 mg/L) was greater than 64 µg/mL. The “MIC of partner antibiotic … at 32 mg/L” value (E. faecalis 5659 (vanA); E. faecalis 5659 (vanA), PFOB 32 mg/L) was greater than 64 µg/mL, the MIC (E. faecalis 5659 (vanA); [1]) was greater than 64 µg/mL and the MIC (E. hirae ATCC 10541) was greater than 128 µg/mL. For the same molecule, the MIC (E. faecalis Phillips) was greater than 128 µg/mL, the MIC (E. faecalis 24592) was greater than 128 µg/mL and the MIC (E. faecalis NCTC 5957) was greater than 128 µg/mL. The MIC (E. faecium NCTC 7171) was greater than 128 µg/mL, the MIC (E. faecalis SFZ) was greater than 128 µg/mL and the “effect on the MIC of CAZ” value (Enterococcus strains; clavulanic acid added at 4 mg/L) was “no significant effect”. For the same molecule, the “activity in isolation against the Enterococcus strains tested” value (Enterococcus strains; compound alone, all strains of Table 1) was “inactive”, the “MIC of partner antibiotic … at 0.5 mg/L” value (E. faecalis ATCC 10541; E. faecalis ATCC 10541, PFOB 0.5 mg/L) was greater than 64 µg/mL and the “MIC of partner antibiotic … at 1 mg/L” value (E. faecalis ATCC 10541; E. faecalis ATCC 10541, PFOB 1 mg/L) was greater than 64 µg/mL. The “MIC of partner antibiotic … at 2 mg/L” value (E. faecalis ATCC 10541; E. faecalis ATCC 10541, PFOB 2 mg/L) was greater than 64 µg/mL, the “MIC of partner antibiotic … at 4 mg/L” value (E. faecalis ATCC 10541; E. faecalis ATCC 10541, PFOB 4 mg/L) was greater than 64 µg/mL and the “MIC of partner antibiotic … at 8 mg/L” value (E. faecalis ATCC 10541; E. faecalis ATCC 10541, PFOB 8 mg/L) was greater than 64 µg/mL. For the same molecule, the “MIC of partner antibiotic … at 16 mg/L” value (E. faecalis ATCC 10541; E. faecalis ATCC 10541, PFOB 16 mg/L) was greater than 64 µg/mL, the “MIC of partner antibiotic … at 32 mg/L” value (E. faecalis ATCC 10541; E. faecalis ATCC 10541, PFOB 32 mg/L) was greater than 64 µg/mL and the MIC (E. faecalis ATCC 10541; Enterococcus faecalis, ATCC10541, read-out: MIC (alone) of Partner) was greater than 64 µg/mL.
